Laboratory results from paper PMC5740082, “Identification of a CARM1 Inhibitor with Potent In Vitro and In Vivo Activity in Preclinical Models of Multiple Myeloma” (Scientific Reports, 2017).
pIC50: −log10 of the molar value.

Assays:
AMO-1 = assay: Six-day cell proliferation assay (CellTiter-Glo); assay type: cell-based; conditions: Homo sapiens, AMO1, 144 h; AMO-1 (Plasmacytoma), 6 days; read-out: Average day 6 gIC50
Description: (§1) Six-day cell proliferation assay
(§2) Optimal cell seeding density was determined empirically for each cell lines by examining the gro wth of a wide ran ge o f seedin g densities in a 3 84-well formatto identify conditio ns that permitted maximal and continued proliferation for 6 days. Cells were plat ed in duplicate plates 24 hours before treatment with a 20- point two-fold dilution series of compound or 0.15%
(§3) DMSO. Plates were incubated for 6 da ys at 37°C in 5% CO2. Cells were th en l ysed with CellTiter-Glo (CTG) (Pr omega) and chemiluminescent sign al was detected with an appropriat e microplate reader. In addition, an untreated plate of cells was harvested at the time of compound addition (T0) to quantif y the initial cell densit y. CTG values obtained after 6 days of treatment were expressed as a percent of the T0 value and plotted against compound concentration. […]
(§4) Supplementary Table S 3. […] A p anel […]
(§5) of cell lines was treated with EZM2302fo r 6da ys in a proliferation ass a y. Cell densit y (as assessed b y CellTiter-Gl o) at da y 0 was compared to day 6 to det ermine growth IC 50 values , calculated us i n g a f our parameter dose response equation.
(§6) Cell Type According to Cell Type Category Cell L ine Name gIC50 Average day 6 Standard Replicates
(§7) Supplier Modifier gIC50 (nM) Deviation […]
(§8) Burkitt lymphoma lymphoma NC-37 > 7331 0 2 […]

GDM-1 = assay: Six-day cell proliferation assay (CellTiter-Glo); assay type: cell-based; conditions: Homo sapiens, 144 h; GDM-1 (AML), 6 days; read-out: Average day 6 gIC50
Description: as §1, §2, §3, §4, §5, §6, §7, §8

JJN3 = assay: Six-day cell proliferation assay (CellTiter-Glo); assay type: cell-based; conditions: Homo sapiens, JJN-3, 144 h; JJN3 (Plasma cell leukemia), 6 days; read-out: Average day 6 gIC50
Description: as §1, §2, §3, §4, §5, §6, §7, §8

L363 = assay: Six-day cell proliferation assay (CellTiter-Glo); assay type: cell-based; conditions: Homo sapiens, L-363, 144 h; L363 (Plasma cell leukemia), 6 days; read-out: Average day 6 gIC50
Description: as §1, §2, §3, §4, §5, §6, §7, §8

LP-1 = assay: Six-day cell proliferation assay (CellTiter-Glo); assay type: cell-based; conditions: Homo sapiens, 144 h; LP-1 (MM), 6 days; read-out: Average day 6 gIC50
Description: as §1, §2, §3, §4, §5, §6, §7, §8

MOLM-16 = assay: Six-day cell proliferation assay (CellTiter-Glo); assay type: cell-based; conditions: MOLM16, 144 h; MOLM-16 (AML), 6 days; read-out: Average day 6 gIC50
Description: as §1, §2, §3, §4, §5, §6, §7, §8

MV-4-11 = assay: Six-day cell proliferation assay (CellTiter-Glo); assay type: cell-based; conditions: Homo sapiens, MV4-11, 144 h; MV-4-11 (AML), 6 days; read-out: Average day 6 gIC50
Description: as §1, §2, §3, §4, §5, §6, §7, §8

NC-37 = assay: Six-day cell proliferation assay (CellTiter-Glo); assay type: cell-based; conditions: Homo sapiens, 144 h; NC-37 (Burkitt lymphoma), 6 days; read-out: Average day 6 gIC50
Description: as §1, §2, §3, §4, §5, §6, §7, §8

Hepatocyte stability = assay type: in vitro ADME; conditions: 1 µM
Description: Hepatocyte stability, plasma protein binding and cytochrome P450 assays were performed using standard procedures. Details can be found in Supplementary Methods. […]
where K I and K J are th e inhibition constants for I and J , respectivel y, and alpha is a constant describing the effect of one inhibitor on the binding of another inhibitor 8.
Reversibility experiments were performed in assay buffer lacking bovine skin gelatin. CARM1 […]
mixture was purified using pre-equilibrated 0.5 mL Zeba (7MWCO) spin columns (Thermo Fisher) following manufacturer ’s instructions. CARM1 was diluted to 0.5 nM in an assay reaction mixture using previously described conditions and activity was measured over 2 hours.
Proteins were kept at 4 °C for further activit y testing. Similar results were also obtained when […]
Methyltransf erase cros s screening panel […]
gen eral p rocedu res f rom Knutson et al.9
In cell w estern assay f or detection of asymmetric di -methyl PABP1 an d DNA content RKO cells (ATCC) were maintained in growth medium (DMEM/Glutamax medium supplemented with 10% v/v heat inactivated fetal bovine serum and 100 units/mL penicillin-streptom ycin) and cultured at 37 °C under 5% CO2. Cells were seeded in assay medium at a concentration of 30,000 cells per m L to a pol y -D-l ys ine coated 384 well culture plate with 50 µ L per well. […]

With CNC[C@@H](O)COc1ccc(Cl)c(-c2nc(-c3c(C)noc3C)c(C)c(N3CC4(CCN(C(=O)OC)CC4)C3)n2)c1 [EZM2302] the pIC50 (AMO-1) was < 4.59, the pIC50 (GDM-1) was 4.68 and the pIC50 (JJN3) was < 4.89. It also gave a pIC50 (L363) of 4.79, a pIC50 (LP-1) of 5.58 and a pIC50 (MOLM-16) of 5.18. For the same molecule, the pIC50 (MV-4-11) was < 5.10, the pIC50 (NC-37) was < 5.13 and the “CL in human hepatocytes (scaled)” value (Hepatocyte stability) was < 3 mL/min/kg.
